{"source": "patent US20160029683A1", "about": "“LOW CALORIE INFANT FORMULA CONTAINING BETA-HYDROXY-BETA-METHYLBUTYRIC ACID” (ABBOTT LABORATORIES, priority 2013, published 2016)", "key": {"[1]": {"tested_on": "LC3-II/LC3-I", "test": "Ratio of LC3-II/LC3-I in muscles", "format": "in vivo, neonatal pigs", "experimental": "(§1) Overnight fasted neonatal pigs (5-7 days old) were infused with HMB with 0, 20, 100, or 400 μmol·kg^−1·hr^−1 HMB. Blood plasma concentrations of the following circulating substrates were measured. HMB was measured using gas chromatography per the method set forth in: Nissen, Steven (1990). Analysis of β-Hydroxy-β-methyl Butyrate in Plasma by Gas […] Chromatography and Mass Spectrometry Analytical Biochemistry 188, 17-19.\n(§2) At the end of the infusion, the piglets were sacrificed and the fractional protein synthesis rates were measured by measuring ^3H incorporation into protein fractions after a flooding dose of L[4-^3H]phenylalanine using the method set forth in Garlick P. J. (1980). A rapid and convenient technique for measuring the rate of protein synthesis in tissues by injection of [3H]Phenylalanine Biochem J 192:719-723. Activation of translation initiation was measured in the stomach, duodenum, jejunum, colon, pancreas, kidney, brain and skin. The abundance of intracellular proteins involved in signaling of protein synthesis and in processes related to protein degradation was measured in tissue homogenates by immunoblotting using commercially available antibodies.\nThe ratio of LC3-II/LC3-I is an indicator of autophagy/lysosomal protein degradation."}, "[2]": {"tested_on": "protein synthesis in skeletal muscles", "test": "Fractional rate of protein synthesis in skeletal muscles of HMB-infused piglets", "format": "in vivo, neonatal pigs", "experimental": "as §1, §2"}, "[3]": {"tested_on": "MURF1", "test": "Expression of MURF1 in muscles", "format": "in vivo, neonatal pigs", "experimental": "as §1, §2\nMURF1 is a muscle-specific ubiquitin ligase."}, "[4]": {"tested_on": "S6K1", "test": "Phosphorylation of S6K1 in muscles (immunoblotting)", "format": "in vivo, neonatal pigs", "experimental": "as §1, §2\nThe phosphorylation of S6K1 is an indicator of mTORC1 signaling to translation."}, "[5]": {"tested_on": "elF4E·elF4G complex", "test": "Formation of the active elF4E·elF4G complex in muscles", "format": "in vivo, neonatal pigs"}, "[6]": {"tested_on": "protein synthesis in the spleen", "test": "Fractional rate of protein synthesis in the spleen of HMB-infused piglets", "format": "in vivo, neonatal pigs", "settings": "infusion rate of 20 μmol·kg^−1·hour^−1 HMB for one hour", "experimental": "as §1, §2"}, "[7]": {"tested_on": "markers of protein degradation", "test": "Markers of protein degradation (overall analysis)", "format": "in vivo, neonatal pigs", "settings": "overall analysis of the piglet data", "experimental": "as §1, §2"}, "[8]": {"tested_on": "Atrogin-1", "test": "Expression of Atrogin-1 in muscles", "format": "in vivo, neonatal pigs", "experimental": "as §1, §2\nAtrogin-1 is a muscle-specific ubiquitin ligase."}, "[9]": {"tested_on": "eEF2", "test": "Phosphorylation of eEF2 in muscles", "format": "in vivo, neonatal pigs", "experimental": "as §1, §2\nThe formation of phosphorylation of eEF2 regulates […]."}, "[10]": {"tested_on": "protein synthesis in longissimus dorsi, gastrocnemius, soleus, diaphragm, duodenum and brain", "test": "Comparison of protein synthesis rates after infusion of HMB or leucine", "format": "in vivo, neonatal pigs", "settings": "HMB 20, 100 or 400 μmol kg^−1 h^−1 vs leucine 400 μmol·kg^−1·hour^−1", "experimental": "as §1, §2"}, "[11]": {"tested_on": "elF2α", "test": "Phosphorylation of elF2α in muscles", "format": "in vivo, neonatal pigs", "experimental": "as §1, §2\nThe formation of phosphorylation of elF2α regulates tRNA-ribosome binding."}, "[12]": {"test": "Blood plasma concentration of HMB in piglets infused with HMB", "format": "in vivo, neonatal pigs", "settings": "pig, intravenous", "experimental": "as §1"}, "[13]": {"tested_on": "protein synthesis in the lung", "test": "Fractional rate of protein synthesis in the lung of HMB-infused piglets", "format": "in vivo, neonatal pigs", "settings": "infusion rate of 20 μmol·kg^−1·hour^−1 HMB for one hour", "experimental": "as §1, §2"}, "[14]": {"tested_on": "amino acid transporters", "test": "Level of amino acid transporters", "format": "in vivo, neonatal pigs", "settings": "overall analysis of the piglet data", "experimental": "as §2"}, "[15]": {"tested_on": "mTORC1", "test": "mTORC1 signaling to translation (overall analysis)", "format": "in vivo, neonatal pigs", "settings": "overall analysis of the piglet data", "experimental": "as §1, §2"}, "[16]": {"tested_on": "protein degradation in the muscles of adults", "settings": "literature (Smith 2004, 2005); cited from earlier work"}, "[17]": {"tested_on": "4EBP1", "test": "Phosphorylation of 4EBP1 in muscles (immunoblotting)", "format": "in vivo, neonatal pigs", "experimental": "as §1, §2\nThe phosphorylation of 4EBP1 is an indicator of mTORC1 signaling to translation."}, "[18]": {"settings": "20 μmol·kg^−1·hour^−1 HMB for one hour"}, "[19]": {"settings": "100 μmol·kg^−1·hour^−1 HMB for one hour"}, "[20]": {"settings": "20 μmol·kg^−1·hour^−1 HMB for one hour, diaphragm"}, "[21]": {"settings": "20 μmol·kg^−1·hour^−1 HMB for one hour, longissimus dorsi, gastrocnemius and soleus"}, "[22]": {"settings": "100 μmol·kg^−1·hour^−1 HMB for one hour, longissimus dorsi, gastrocnemius and soleus"}, "[23]": {"settings": "100 μmol·kg^−1·hour^−1 HMB for one hour, diaphragm"}}, "note": "“Also recorded” adds a separate entry of the source."}
{"smiles": "CC(C)(O)CC(=O)O", "note": "[HMB, beta-hydroxy-beta-methylbutyric acid]", "values": [{"measurement": "ratio of LC3-II/LC3-I", "setting": "[1]; [18]", "value": "did not affect"}, {"measurement": "ratio of LC3-II/LC3-I", "setting": "[1]; [19]", "value": "did not affect"}, {"measurement": "fractional rates of protein synthesis in the skeletal muscles", "setting": "[2]; 20 μmol·kg^−1·hour^−1 HMB, longissimus dorsi, gastrocnemius, soleus and diaphragm, P<0.05", "value": "increased"}, {"measurement": "protein synthesis in the gastrocnemius, soleus and diaphragm muscles", "setting": "[2]; 100 μmol·kg^−1·hour^−1 HMB", "value": "not significantly"}, {"measurement": "protein synthesis in the longissimus dorsi muscle", "setting": "[2]; 100 μmol·kg^−1·hour^−1 HMB, P<0.05", "value": "increased"}, {"measurement": "protein synthesis in the skeletal muscles", "setting": "[2]; 400 μmol·kg^−1·hour^−1 HMB", "value": "no significant effect"}, {"measurement": "impact on protein synthesis in 4 muscles (fast twitch, slow twitch, voluntary and involuntary)", "setting": "[2]; highest dose, 400 μmol kg^−1 h^−1, compared with other doses", "value": "least impact"}, {"measurement": "impact on protein synthesis in 4 muscles (fast twitch, slow twitch, voluntary and involuntary)", "setting": "[2]; lowest dose of HMB 20 μmol kg^−1 h^−1, compared with other doses", "value": "greatest impact"}, {"measurement": "expression of MURF1", "setting": "[3]; [18]", "value": "did not affect"}, {"measurement": "expression of MURF1", "setting": "[3]; [19]", "value": "did not affect"}, {"measurement": "phosphorylation of S6K1", "setting": "[4]; [20]", "value": "increased"}, {"measurement": "phosphorylation of S6K1", "setting": "[4]; [21]", "value": "increased"}, {"measurement": "phosphorylation of S6K1", "setting": "[4]; [22]", "value": "increased"}, {"measurement": "formation of active eIF4E·eIF4G complex", "setting": "[5]; [20]", "value": "increased"}, {"measurement": "formation of active eIF4E·eIF4G complex", "setting": "[5]; [21]", "value": "increased"}, {"measurement": "formation of active eIF4E·eIF4G complex", "setting": "[5]; [23]", "value": "not"}, {"measurement": "formation of active eIF4E·eIF4G complex", "setting": "[5]; [22]", "value": "increased"}, {"measurement": "protein synthesis in the spleen", "setting": "[6]", "value": "increase"}, {"measurement": "markers of protein degradation", "setting": "[7]", "value": "did not affect"}, {"measurement": "expression of Atrogin-1", "setting": "[8]; [18]", "value": "did not affect"}, {"measurement": "expression of Atrogin-1", "setting": "[8]; [19]", "value": "did not affect"}, {"measurement": "phosphorylation of eEF2", "setting": "[9]; [18]", "value": "did not affect"}, {"measurement": "phosphorylation of eEF2", "setting": "[9]; [19]", "value": "did not affect"}, {"measurement": "effectiveness in increasing protein synthesis compared with leucine", "setting": "[10]", "value": "equal to or more effective; also recorded: as effective as leucine"}, {"measurement": "phosphorylation of elF2α", "setting": "[11]; [18]", "value": "did not affect"}, {"measurement": "phosphorylation of elF2α", "setting": "[11]; [19]", "value": "did not affect"}, {"measurement": "concentration at 1 h", "setting": "[12]; piglets infused with 20 μmol·kg^−1·hr^−1 HMB", "value": 90, "unit": "µM"}, {"measurement": "concentration at 1 h", "setting": "[12]; piglets infused with 100 μmol·kg^−1·hr^−1 HMB", "value": 316, "unit": "µM"}, {"measurement": "concentration at 1 h", "setting": "[12]; piglets infused with 400 μmol·kg^−1·hr^−1 HMB", "value": 1400, "unit": "µM"}, {"measurement": "protein synthesis in the lung", "setting": "[13]", "value": "increase"}, {"measurement": "level of amino acid transporters", "setting": "[14]", "value": "did not affect"}, {"measurement": "activation of protein synthesis via mTORC1", "setting": "[15]", "value": "activated protein synthesis by inducing mTORC1"}, {"measurement": "protein degradation in the muscles of adults", "setting": "[16]", "value": "attenuates protein degradation"}, {"measurement": "phosphorylation of 4EBP1", "setting": "[17]; [20]", "value": "increased"}, {"measurement": "phosphorylation of 4EBP1", "setting": "[17]; [21]", "value": "increased"}, {"measurement": "phosphorylation of 4EBP1", "setting": "[17]; [23]", "value": "not"}, {"measurement": "phosphorylation of 4EBP1", "setting": "[17]; [22]", "value": "increased"}]}
